Data: US20240425483A1, “INDOLINES AS PROTAC COMPOUNDS” (NeoPhore Limited, priority 2021, published 2024)

Target: T1, PMS2 protein (Homo sapiens, UniProt P54278)
T1 construct: host or cells: SW620 human colorectal carcinoma cells
T1 sequence (P54278 1-862): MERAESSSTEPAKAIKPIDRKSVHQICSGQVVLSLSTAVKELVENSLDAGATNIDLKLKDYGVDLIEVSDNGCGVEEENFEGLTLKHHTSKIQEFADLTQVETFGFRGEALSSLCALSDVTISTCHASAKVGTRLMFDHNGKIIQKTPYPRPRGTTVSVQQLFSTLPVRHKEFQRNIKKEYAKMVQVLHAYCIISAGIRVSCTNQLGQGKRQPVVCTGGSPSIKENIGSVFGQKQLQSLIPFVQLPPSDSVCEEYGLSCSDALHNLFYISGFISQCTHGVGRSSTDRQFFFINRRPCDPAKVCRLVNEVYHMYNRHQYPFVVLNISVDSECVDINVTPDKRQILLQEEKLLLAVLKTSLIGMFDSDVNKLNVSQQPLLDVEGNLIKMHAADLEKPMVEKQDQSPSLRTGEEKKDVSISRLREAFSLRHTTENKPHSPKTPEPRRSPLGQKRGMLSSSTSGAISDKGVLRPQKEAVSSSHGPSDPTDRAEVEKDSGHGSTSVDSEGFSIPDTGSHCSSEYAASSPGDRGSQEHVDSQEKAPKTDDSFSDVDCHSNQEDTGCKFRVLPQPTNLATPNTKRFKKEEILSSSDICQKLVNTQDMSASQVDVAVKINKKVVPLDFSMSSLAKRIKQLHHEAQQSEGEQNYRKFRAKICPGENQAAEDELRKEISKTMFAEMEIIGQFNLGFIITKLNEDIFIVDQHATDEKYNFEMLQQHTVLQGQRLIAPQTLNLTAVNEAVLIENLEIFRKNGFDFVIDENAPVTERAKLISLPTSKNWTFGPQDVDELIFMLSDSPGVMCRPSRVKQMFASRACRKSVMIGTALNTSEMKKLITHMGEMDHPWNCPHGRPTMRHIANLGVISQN
Test: PROTAC screening in SW620 human colorectal carcinoma cells, PMS2 protein level by JESS Western blot
Format: cell-based
Details: SW-620, 24 h, 1 uM compound, normalised to actin and DMSO control, Table A1
Procedure: PROTAC Screening Protocol Using SW620 Human Colorectal Carcinoma Cells
SVW620 cells (ATCC/[…]) were cultured in T75 Falcon flasks in culture media (F12/DMEM 1:1 media, 10% FCS, +L-G supplement). Cells were split twice a week, for a maximum of 6 weeks. Media was aspirated, and cells washed with 10 mL of sterile PBS. PBS was aspirated, and cells incubated with 1.5 mL TrypLE for up to 5 minutes at 37° C., 5% CO2. Once cells had detached, TrypLE was neutralised with 10 mL culture media and cells mixed 1:1 with Trypan blue and quantified using a Luna cell counter. Cells were then seeded into fresh T75 flasks with 1×10^6 cells and 10 mL culture media.
SW620 cells, cultured and counted as above, were used to seed 12 well plates at a density of 1.5×10^5 cells/well and incubated overnight at 37° C., 5% CO2. Test compounds were solubilized in DMSO to a stock concentration of 10 mM and serially diluted in DMSO and media to their test concentration; the final concentration of DMSO was 0.1% (v/v). Each concentration was tested in triplicate. SW620 cells were incubated with test compound for 24 hours at 37° C., 5% CO2. Media was aspirated from each well, and each well washed with 1 mL ice cold PBS. PBS was then aspirated, and 50 μL of cold lysis buffer (RIPA buffer supplemented with 1× protease inhibitors, Benzonase, MgCl) was added to each well; plates were then incubated on ice for 5 minutes. Cells were scraped using a pipette tip before being transferred to a fresh Eppendorf. Samples were spun at maximum speed in a benchtop centrifuge for 5 minutes at 4° C. and supernatant was then transferred to fresh tubes. Samples were stored at −80° C. until analysis.
Bicinchonininic acid (BCA) protein assay standards (2-0.125 mg/mL BSA) were prepared in advance. 6 μL of each standard was pipetted in duplicate into rows A and B of a 384-well assay plate. Test samples were diluted in lysis buffer (1:3-1:10) in a 384-well plate in duplicate. BCA Reagents were combined 50:1, Part A:Part B and 50 μL added to each well. Plates were incubated for 30 min at 37° C. in a plate incubator and read using a BCA protein 384 protocol on an EnSpire plate reader. Protein concentrations were calculated from a standard curve.
JESS Western Blot Protocol
Protein lysates were prepared using Protein Simple EZ standard pack reagents: 40 μL distilled H2O was added to a DTT tube (clear) and treated with 20 μL 10× sample buffer and 20 μL DTT to 5×MM tube (pink). 20 μL dH2O was added to biotinylated ladder tube (green).
Test samples were prepared by dilution to the required concentration (0.1 mg/mL) in 0.1× sample buffer. 1.25 μL 5× fluorescent master mix from the EZ standard pack was added to 5 μL sample for each lane to be loaded (e.g. 2.5 μL+10 μL if loading same sample into 2 wells). Samples were vortexed, briefly spun down and heated at 95° C. for 5 min in a PCR machine then vortexed again and briefly spun down before loading onto JESS cassettes (catalogue No: SM-W004) according to manufacturer's instructions (https://www.proteinsimple.com/technical_library.html?product=simplewestern&def_list=list). Protein expression was determined by the peak area of the target protein signal. Peak area of the target protein was normalised to peak area of the loading control (actin) and to DMSO control.

SMILES | remaining activity at 1 µM [%]
Cc1c(O)cc(O)c(C(=O)N2Cc3ccc(CN4CCN(CCOCCOCCOCCOCCOc5cccc6c5C(=O)N(C5CCC(=O)NC5=O)C6=O)CC4)cc3C2)c1OCc1ccccc1 (stereo not drawn) [Example 11, 4-((14-(4-((2-(2-(Benzyloxy)-4,6-dihydroxy-3-methylbenzoyl)isoindolin-5-yl)methyl)piperazin-1-yl)-3,6,9,12-tetraoxatetradecyl)oxy)-2-(2,6-dioxopiperidin-3-yl)isoindoline-1,3-dione] | 10 to 25
Cc1c(O)cc(O)c(C(=O)N2Cc3ccc(CN4CCN(CCOCCOCCOCCOc5cccc6c5C(=O)N(C5CCC(=O)NC5=O)C6=O)CC4)cc3C2)c1OCc1ccccc1 (stereo not drawn) [Example 9, 4-(2-(2-(2-(2-(4-((2-(2-(Benzyloxy)-4,6-dihydroxy-3-methylbenzoyl)isoindolin-5-yl)methyl)piperazin-1-yl)ethoxy)ethoxy)ethoxy)ethoxy)-2-(2,6-dioxopiperidin-3-yl)isoindoline-1,3-dione] | 10 to 25
Cc1ncsc1-c1ccc(CNC(=O)[C@@H]2C[C@@H](O)CN2C(=O)[C@@H](NC(=O)CCCCCCCCCC(=O)N2CCN(Cc3ccc4c(c3)CN(C(=O)c3c(O)cc(O)c(C)c3OCc3ccccc3)C4)CC2)C(C)(C)C)cc1 [Example 24, (2S,4R)-1-((S)-2-(11-(4-((2-(2-(Benzyloxy)-4,6-dihydroxy-3-methylbenzoyl)isoindolin-5-yl)methyl)piperazin-1-yl)-11-oxoundecanamino)-3,3-dimethylbutanoyl)-4-hydroxy-N-(4-(4-methylthiazol-5-yl)benzyl) pyrrolidine-2-carboxamide] | < 10
Cc1c(O)cc(O)c(C(=O)N2Cc3ccc(CN4CCN(CCOCCOCCOCCOCCNc5cccc6c5C(=O)N(C5CCC(=O)NC5=O)C6=O)CC4)cc3C2)c1OCc1ccccc1 (stereo not drawn) [Example 3, 4-((14-(4-((2-(2-(Benzyloxy)-4,6-dihydroxy-3-methylbenzoyl)isoindolin-5-yl)methyl)piperazin-1-yl)-3,6,9,12-tetraoxatetradecyl)amino)-2-(2,6-dioxopiperidin-3-yl)isoindoline-1,3-dione] | 10 to 25
Cc1c(O)cc(O)c(C(=O)N2Cc3ccc(CN4CCN(CCOCCOCCOCCNc5cccc6c5C(=O)N(C5CCC(=O)NC5=O)C6=O)CC4)cc3C2)c1OCc1ccccc1 (stereo not drawn) [Example 1, 4-((2-(2-(2-(2-(4-((2-(2-(Benzyloxy)-4,6-dihydroxy-3-methylbenzoyl)isoindolin-5-yl)methyl)piperazin-1-yl)ethoxy)ethoxy)ethoxy)ethyl)amino)-2-(2,6-dioxopiperidin-3-yl)isoindoline-1,3-dione] | 10 to 25
Cc1ncsc1-c1ccc(CNC(=O)[C@@H]2C[C@@H](O)CN2C(=O)[C@@H](NC(=O)CCCCCCCC(=O)N2CCN(Cc3ccc4c(c3)CN(C(=O)c3c(O)cc(O)c(C)c3OCC3CCCCC3)C4)CC2)C(C)(C)C)cc1 [Example 28, (2S,4R)-1-[(2S)-2-[[9-[4-[[2-[2-(Cyclohexylmethoxy)-4,6-dihydroxy-3-methyl-benzoyl]isoindolin-5-yl]methyl]piperazin-1-yl]-9-oxo-nonanoyl]amino]-3,3-dimethyl-butanoyl]-4-hydroxy-N-[[4-(4-methylthiazol-5-yl)phenyl]methyl]pyrrolidine-2-carboxamide] | < 10
Cc1c(O)cc(O)c(C(=O)N2Cc3ccc(CN4CCN(CCOCCOCCOCCNc5ccc6c(c5)C(=O)N(C5CCC(=O)NC5=O)C6=O)CC4)cc3C2)c1OCc1ccccc1 (stereo not drawn) [Example 13, 5-((2-(2-(2-(2-(4-((2-(2-(Benzyloxy)-4,6-dihydroxy-3-methylbenzoyl)isoindolin-5-yl)methyl)piperazin-1-yl)ethoxy)ethoxy)ethoxy)ethyl)amino)-2-(2,6-dioxopiperidin-3-yl)isoindoline-1,3-dione] | 10 to 25

Further lines, results first:

remaining activity at 1 µM [%] | SMILES
10 to 25 | Cc1c(O)cc(O)c(C(=O)N2Cc3ccc(CN4CCN(CCOCCOCCOCCNc5cccc6c5C(=O)N(C5CCC(=O)NC5=O)C6=O)CC4)cc3C2)c1OCC1CCCCC1 (stereo not drawn) [Example 5, 4-[2-[2-[2-[2-[4-[[2-[2-(Cyclohexylmethoxy)-4,6-dihydroxy-3-methyl-benzoyl]isoindolin-5-yl]methyl]piperazin-1-yl]ethoxy]ethoxy]ethoxy]ethylamino]-2-(2,6-dioxo-3-piperidyl)isoindoline-1,3-dione]
25 to 50 | Cc1c(O)cc(O)c(C(=O)N2Cc3ccc(CN4CCN(CCOCCOCCOCCNc5ccc6c(c5)CN(C5CCC(=O)NC5=O)C6=O)CC4)cc3C2)c1OCc1ccccc1 (stereo not drawn) [Example 16, 3-(5-((2-(2-(2-(2-(4-((2-(2-(Benzyloxy)-4,6-dihydroxy-3-methylbenzoyl)isoindolin-5-yl)methyl)piperazin-1-yl)ethoxy)ethoxy)ethoxy)ethyl)amino)-1-oxoisoindolin-2-yl)piperidine-2,6-dione]
10 to 25 | Cc1c(O)cc(O)c(C(=O)N2Cc3ccc(CN4CCC(C(=O)N5CCN(c6ccc7c(c6)CN(C6CCC(=O)NC6=O)C7=O)CC5)CC4)cc3C2)c1OCC1CCCCC1 (stereo not drawn) [Example 21, 3-(5-(4-(1-((2-(2-(cyclohexylmethoxy)-4,6-dihydroxy-3-methylbenzoyl)isoindolin-5-yl)methyl)piperidine-4-carbonyl)piperazin-1-yl)-1-oxoisoindolin-2-yl)piperidine-2,6-dione]
10 to 25 | Cc1c(O)cc(O)c(C(=O)N2Cc3ccc(C(=O)N4CCC(CN5CCN(c6ccc7c(c6)CN(C6CCC(=O)NC6=O)C7=O)CC5)CC4)cc3C2)c1OCc1ccccc1 (stereo not drawn) [Example 22, 3-(5-(4-((1-(2-(2-(Benzyloxy)-4,6-dihydroxy-3-methylbenzoyl)isoindoline-5-carbonyl)piperidin-4-yl)methyl)piperazin-1-yl)-1-oxoisoindolin-2-yl)piperidine-2,6-dione]
10 to 25 | Cc1c(O)cc(O)c(C(=O)N2Cc3ccc(CN4CCN(CCOCCOCCOCCNc5cccc6c5CN(C5CCC(=O)NC5=O)C6=O)CC4)cc3C2)c1OCc1ccccc1 (stereo not drawn) [Example 15, 3-(4-((2-(2-(2-(2-(4-((2-(2-(Benzyloxy)-4,6-dihydroxy-3-methylbenzoyl)isoindolin-5-yl)methyl)piperazin-1-yl)ethoxy)ethoxy)ethoxy)ethyl)amino)-1-oxoisoindolin-2-yl)piperidine-2,6-dione]
